Assay results reported in patent publication US20110245242A1, “Heterocyclically Substituted Anilinopyrimides” (Bayer CropScience AG, priority 2008, published 2011).
Where two headings read alike, the source gives them in different places. Marks after values point to notes of the source that are not given here. Blank lines part the entries; values can stand above or below the molecule they belong to.

Legend:
[1] = log P by HPLC on reversed-phase columns (C 18), method [a], acidic range pH 2.3; type: physicochemical
Experimental: The log P values were measured in accordance with EEC Directive 79/831 Annex V.A8 by HPLC (High Performance Liquid Chromatography) on reversed-phase columns (C 18) using the methods below: [a] The determination was carried out in the acidic range at pH 2.3 using the mobile phases 0.1% aqueous phosphoric acid and acetronitrile linear gradient from 10% acetonitrile to 95% acetronitrile.

[2] = log P by LC-MS, method [b], acid range pH 2.7; type: physicochemical
Experimental: The log P values were measured in accordance with EEC Directive 79/831 Annex V.A8 by HPLC (High Performance Liquid Chromatography) on reversed-phase columns (C 18) using the methods below:
[b] The LC-MS determination in the acid range was carried out at pH 2.7 using the mobile phases 0.1% aqueous formic acid and acetonitrile (contains 0.1% formic acid)
linear gradient from 10% acetonitrile to 95% acetonitrile.

Fusarium proliferatum = experiment: Production of Fumonisin FB1 by Fusarium proliferatum (microtitre plates; FB1 by HPLC-MS/MS, growth by OD620); type: cell-based; settings: for pI50 growth: OD620 at the beginning and after 6 days; for pI50 Fum: FB1 concentration in liquid medium after 6 days at 20° C., HPLC-MS/MS
physchem = type: physicochemical; settings: pH 7.8
Experimental: The log P values were measured in accordance with EEC Directive 79/831 Annex V.A8 by HPLC (High Performance Liquid Chromatography) on reversed-phase columns (C 18) using the methods below: [c] The LC-MS determination in the neutral range was carried out at pH 7.8 using the mobile phases 0.001 molar aqueous ammonium bicarbonate solution and acetonitrile linear gradient from 10% acetonitrile to 95% acetonitrile.

Sphaerotheca fuliginea = experiment: Sphaerotheca test (cucumber)/protective; type: in vivo; settings: Podosphaera fuliginea, 168 h, active compound concentration of 500 ppm, protective, evaluation 7 days after the inoculation, read-out: efficacy
[3] = type: physicochemical
Experimental: The log P values were measured in accordance with EEC Directive 79/831 Annex V.A8 by HPLC (High Performance Liquid Chromatography) on reversed-phase columns (C 18) using the methods below: […]

Molecule: 1-(3-{[4-(Cyclopropylamino)-5-(trifluoromethyl)pyrimidin-2-yl]amino}phenyl)pyrrolidin-2-one [Example 236]
log P (pH 2.3) ([1]; pH 2.3): 1.49
log p ([2]; method [b], LC-MS, acid range pH 2.7): 1.49[b]
pI50 growth (Fusarium proliferatum): 4.9

Molecule: CCC(C)Nc1nc(Nc2cccc(N3CCCC3=O)c2)ncc1Cl (centres unmarked) [Example 8]
log p ([1]; pH 2.3): 1.84[a];
pI50 Fum (Fusarium proliferatum): 4.6
pI50 growth (Fusarium proliferatum): 4
log p (physchem): 2.92[c]

Molecule: CC1(C)CC(=O)N(c2cccc(Nc3ncc(Cl)c(NC4CC4)n3)c2)C1=O [Example 25]
log p ([1]; pH 2.3): 1.83[a]
pI50 Fum (Fusarium proliferatum): 6.3
pI50 growth (Fusarium proliferatum): 5.6

Molecule: CC1CCN(c2cccc(Nc3ncc(Br)c(NC4CCC4)n3)c2)C1=O (centres unmarked) [Example 27]
log p ([1]; pH 2.3): 2.24[a];
log p ([2]; pH 2.7): 2.09[b]
pI50 Fum (Fusarium proliferatum): 6.2
pI50 growth (Fusarium proliferatum): 5.6

Molecule: CCC1COC(=O)N1c1cccc(Nc2ncc(Cl)c(NC3CC3)n2)c1 (centres unmarked) [Example 31]
log p ([1]; pH 2.3): 1.86[a]
pI50 Fum (Fusarium proliferatum): 6.3
pI50 growth (Fusarium proliferatum): 5.7

Molecule: CC1COC(=O)N1c1cccc(Nc2ncc(Br)c(NC3CCC3)n2)c1 (centres unmarked) [Example 56]
log p ([1]; pH 2.3): 1.97[a]
pI50 Fum (Fusarium proliferatum): 6.2
pI50 growth (Fusarium proliferatum): 5.6

Molecule: CC1CCC(=O)N1c1cccc(Nc2ncc(Br)c(NC3CC3)n2)c1 (centres unmarked) [Example 60]
log p ([1]; pH 2.3): 1.72[a];
log p ([2]; pH 2.7): 1.72[b]
pI50 Fum (Fusarium proliferatum): 6.3
pI50 growth (Fusarium proliferatum): 5.5

Molecule: CC1(C)CC(=O)N(c2cccc(Nc3ncc(C(F)(F)F)c(NC4CC4)n3)c2)C1=O [Example 62]
log p ([1]; pH 2.3): 2.63[a]
pI50 Fum (Fusarium proliferatum): 6.2
pI50 growth (Fusarium proliferatum): 5.7

Molecule: CC1(C)CC(=O)N(c2cccc(Nc3ncc(Br)c(NC4CCC4)n3)c2)C1=O [Example 63]
log p ([1]; pH 2.3): 2.19[a]
pI50 Fum (Fusarium proliferatum): 6.6
pI50 growth (Fusarium proliferatum): 5.7

Molecule: CC1CC(=O)N(c2cccc(Nc3ncc(Cl)c(NC4CC4)n3)c2)C1=O (centres unmarked) [Example 65]
log p ([2]; pH 2.7): 1.59[b]
pI50 Fum (Fusarium proliferatum): 6.2
pI50 growth (Fusarium proliferatum): 5.7

Molecule: CC1CC(=O)N(c2cccc(Nc3ncc(Br)c(NC4CCC4)n3)c2)C1=O (centres unmarked) [Example 73]
log p ([2]; pH 2.7): 1.9[b]
pI50 Fum (Fusarium proliferatum): 6.4
pI50 growth (Fusarium proliferatum): 5.8

Molecule: CC(C)[C@H]1COC(=O)N1c1cccc(Nc2ncc(Cl)c(NC3CC3)n2)c1 [Example 76]
log p ([2]; pH 2.7): 2.47[b]
pI50 Fum (Fusarium proliferatum): 6.2
pI50 growth (Fusarium proliferatum): 5.6

Molecule: CC1CC(C)N(c2cccc(Nc3ncc(Br)c(NC4CC4)n3)c2)C1=O (centres unmarked) [Example 84]
log p ([2]; pH 2.7): 2.01[b]
pI50 Fum (Fusarium proliferatum): 6.3
log p (physchem): 2.91[c];

Molecule: C[C@H]1COC(=O)N1c1cccc(Nc2ncc(Cl)c(NC3CC3)n2)c1 [Example 92]
log p ([2]; pH 2.7): 1.54[b]
pI50 Fum (Fusarium proliferatum): 6.6
pI50 growth (Fusarium proliferatum): 5.7
log p (physchem): 2.42[c];

chromatographic logP ([1]; pH 2.3, log P (pH 2.3)): 1.65
chromatographic logP ([1]; pH 2.3, log p): 1.65
Molecule: CCOC1CCC(=O)N1c1cccc(Nc2ncc(Cl)c(NC3CC3)n2)c1 (centres unmarked) [Example 106, 1-(3-{[5-Chloro-4-(cyclopropylamino)pyrimidin-2-yl]amino}phenyl)-5-ethoxypyrrolidin-2-one]
pest or weed control at 500 ppm (Sphaerotheca fuliginea): ≥ 70%

chromatographic logP ([1]; pH 2.3, log P (pH 2.3)): 2.49
chromatographic logP ([2]; pH 2.7): 2.49
Molecule: O=C1CCC(=O)N1c1cc(Nc2ncc(C(F)(F)F)c(NC3CC3)n2)ccc1Cl [Example 119, 1-(2-Chloro-5-{[4-(cyclopropylamino)-5-(trifluoromethyl)pyrimidin-2-yl]amino}phenyl)pyrrolidine-2,5-dione]
pest or weed control at 500 ppm (Sphaerotheca fuliginea): ≥ 70%

Molecule: CC1COC(=O)N1c1cccc(Nc2ncc(Br)c(NCC3CC3)n2)c1 (centres unmarked) [Example 131]
log p ([2]; pH 2.7): 1.75[b]
pI50 Fum (Fusarium proliferatum): 6
pI50 growth (Fusarium proliferatum): 5.3

Molecule: COC(=O)C1CC(=O)N(c2cccc(Nc3ncc(Cl)c(NC4CC4)n3)c2)C1 (centres unmarked) [Example 137]
log p ([2]; pH 2.7): 1.52[b]
pI50 Fum (Fusarium proliferatum): 5.7
pI50 growth (Fusarium proliferatum): 5.1

Molecule: CC(C)Nc1nc(Nc2cccc(N3CCOC3=O)c2)ncc1Cl [Example 138]
log p ([2]; pH 2.7): 1.56[b]
pI50 Fum (Fusarium proliferatum): 5
pI50 growth (Fusarium proliferatum): 4.9

Molecule: CC(C)Nc1nc(Nc2cccc(N3C(=O)OCC3C)c2)ncc1Cl (centres unmarked) [Example 139]
log p ([2]; pH 2.7): 1.64[b]
pI50 Fum (Fusarium proliferatum): 5
pI50 growth (Fusarium proliferatum): 5

Molecule: CC(C)Nc1nc(Nc2cccc(N3C(=O)CC(C)(C)C3=O)c2)ncc1Cl [Example 140]
log p ([2]; pH 2.7): 1.81[b]
pI50 Fum (Fusarium proliferatum): 5.7
pI50 growth (Fusarium proliferatum): 5.2

Molecule: CC(C)Nc1nc(Nc2cccc(N3C(=O)C(C)CC3C)c2)ncc1Cl (centres unmarked) [Example 141]
log p ([2]; pH 2.7): 1.88[b]
pI50 Fum (Fusarium proliferatum): 5.3
pI50 growth (Fusarium proliferatum): 5
log p (physchem): 3.15[c];

Molecule: CC(C)Nc1nc(Nc2cccc(N3CCOC3=O)c2)ncc1Br [Example 146]
log p ([2]; pH 2.7): 1.63[b]
pI50 growth (Fusarium proliferatum): 5

Molecule: CC1COC(=O)N1c1cccc(Nc2ncc(Cl)c(NCC(F)(F)F)n2)c1 (centres unmarked) [Example 169]
log p ([2]; pH 2.7): 2.16[b]
pI50 Fum (Fusarium proliferatum): 5.5
pI50 growth (Fusarium proliferatum): 5.1

Molecule: CN(c1nc(Nc2cccc(N3C(=O)CC(C)(C)C3=O)c2)ncc1Cl)C1CC1 [Example 177]
log p ([2]; pH 2.7): 2.55[b]
pI50 Fum (Fusarium proliferatum): 6.1
pI50 growth (Fusarium proliferatum): 5.7

Molecule: CC1CC(C)N(c2cccc(Nc3ncc(Cl)c(N(C)C4CC4)n3)c2)C1=O (centres unmarked) [Example 178]
log p ([2]; pH 2.7): 2.61[b]
pI50 Fum (Fusarium proliferatum): 5.7
pI50 growth (Fusarium proliferatum): 4.9

Molecule: CC1CCN(c2cccc(Nc3ncc(Br)c(NC4CC4)n3)c2)C1=O (centres unmarked) [Example 187]
log p ([2]; pH 2.7): 1.87[b]
pI50 Fum (Fusarium proliferatum): 6.3
pI50 growth (Fusarium proliferatum): 5.8
log p (physchem): 2.83[c];

chromatographic logP ([1]; pH 2.3, log P (pH 2.3)): 1.69
chromatographic logP ([2]; pH 2.7): 1.69
chromatographic logP (physchem): 2.53
Molecule: CCOC(=O)[C@@H]1CCC(=O)N1c1cccc(Nc2ncc(Cl)c(NC3CC3)n2)c1 [Example 190, Ethyl 1-(3-{[5-chloro-4-(cyclopropylamino)pyrimidin-2-yl]amino}phenyl)-5-oxo-L-prolinate]
pest or weed control at 500 ppm (Sphaerotheca fuliginea): ≥ 70%

Molecule: O=C1OCCN1c1cccc(Nc2ncc(C(F)(F)F)c(NC3CCC3)n2)c1 [Example 194]
log p ([2]; pH 2.7): 2.58[b]
pI50 Fum (Fusarium proliferatum): 6.1
pI50 growth (Fusarium proliferatum): 5.4

Molecule: O=C1CCC(=O)N1c1cccc(Nc2ncc(Cl)c(NC3CC3)n2)c1 [Example 195]
pI50 Fum (Fusarium proliferatum): 6.2
log p (physchem): 1.98[c];
log p [3]: 0.99[d]

Molecule: CC1(C)CC(=O)N(c2cccc(Nc3ncc(C(F)(F)F)c(NCC4CC4)n3)c2)C1=O [Example 196]
log p ([2]; pH 2.7): 2.81[b]
pI50 Fum (Fusarium proliferatum): 5.3
pI50 growth (Fusarium proliferatum): 4.8

Molecule: CN(c1nc(Nc2ccc(F)c(N3CCCC3=O)c2)ncc1Cl)C1CC1 [Example 198]
log p ([2]; pH 2.7): 2.53[b]
pI50 Fum (Fusarium proliferatum): 5.5
pI50 growth (Fusarium proliferatum): 4.8
log p (physchem): 2.92[c];

Molecule: CC1CC1Nc1nc(Nc2cccc(N3CCCC3=O)c2)ncc1Cl (centres unmarked) [Example 200]
log p ([2]; pH 2.7): 1.72[b]
pI50 Fum (Fusarium proliferatum): 4.8
pI50 growth (Fusarium proliferatum): 4.7

log p ([2]; pH 2.7): 1.26[b];
log p (physchem): 2.13[c];
log p [3]: 1.02[d]
Molecule: COCC(C)Nc1nc(Nc2cccc(N3C(=O)CCC3=O)c2)ncc1Cl (centres unmarked) [Example 202]

log p ([2]; pH 2.7): 1.48[b];
log p (physchem): 2.32[c];
log p [3]: 1.24[d]
Molecule: O=C1CCC(=O)N1c1cccc(Nc2ncc(Cl)c(NC3CCC3)n2)c1 [Example 203]

chromatographic logP ([1]; pH 2.3, log P (pH 2.3)): 2.19
chromatographic logP ([2]; pH 2.7): 2.19
chromatographic logP (physchem): 3.15
Molecule: CCC1CC(C)C(=O)N1c1cccc(Nc2ncc(Cl)c(NC3CC3)n2)c1 (centres unmarked) [Example 206, 1-(3-{[5-Chloro-4-(cyclopropylamino)pyrimidin-2-yl]amino}phenyl)-5-ethyl-3-methylpyrrolidin-2-one]
pest or weed control at 500 ppm (Sphaerotheca fuliginea): ≥ 70%

log p ([2]; pH 2.7): 2.63[b];
log p [3]: 2.19[d]
Molecule: CCC1CC(C)C(=O)N1c1cccc(Nc2ncc(Br)c(NC3CCC3)n2)c1 (centres unmarked) [Example 211]

chromatographic logP ([1]; pH 2.3, log P (pH 2.3)): 1.22
chromatographic logP ([2]; pH 2.7): 1.49
Molecule: O=CN(c1cccc(N2CCCC2=O)c1)c1ncc(Cl)c(NC2CC2)n1 [Example 217, N-[5-Chloro-4-(cyclopropylamino)pyrimidin-2-yl]-N-[3-(2-oxopyrrolidin-1-yl)phenyl]-formamide]
pest or weed control at 500 ppm (Sphaerotheca fuliginea): ≥ 70%

Molecule: CC1CC1Nc1nc(Nc2cccc(N3CCCC3=O)c2)ncc1C(F)(F)F (centres unmarked) [Example 219]
log p ([2]; pH 2.7): 2.79[b]
pI50 Fum (Fusarium proliferatum): 6.3
pI50 growth (Fusarium proliferatum): 5.5

Molecule: CCC1=C(C)CN(c2cccc(Nc3ncc(Cl)c(NC4CC4)n3)c2)C1=O [Example 224]
log p ([1]; pH 2.3): 2.2[a]
pI50 Fum (Fusarium proliferatum): 6
pI50 growth (Fusarium proliferatum): 5.3

chromatographic logP ([1]; pH 2.3, log P (pH 2.3)): 1.87
chromatographic logP ([2]; pH 2.7): 1.87
chromatographic logP (physchem): 1.82
Molecule: COCC(=O)N(c1cccc(N2CCCC2=O)c1)c1ncc(Cl)c(NC2CC2)n1 [Example 231, N-[5-Chloro-4-(cyclopropylamino)pyrimidin-2-yl]-2-methoxy-N-[3-(2-oxopyrrolidin-1-yl)phenyl]acetamide]
pest or weed control at 500 ppm (Sphaerotheca fuliginea): ≥ 70%
